One test has as its system rNsp5-L50F/E166A/L167F. The test is classed as cell-based, SARS-CoV-2. To be noted: read-out: rNsp5-L50F/E166A/L167F EC50.
For the next test, the system named is rNsp5-L50F/E166V. The test is classed as cell-based, SARS-CoV-2. As to conditions: read-out: rNsp5-L50F/E166V EC50.

Regarding `CC(C)(C)[C@H](NC(=O)C(F)(F)F)C(=O)N1C[C@H]2[C@@H]([C@H]1C(=O)N[C@H](C#N)C[C@@H]1CCNC1=O)C2(C)C` [Nirmatrelvir, nirmatrelvir], the EC50 with rNsp5-L50F/E166A/L167F is 630 nM; with rNsp5-L50F/E166V it was greater than 1000 nM.
